{"source": "patent US20140178367A1", "about": "“Methods of Treating Inflammatory Diseases by Targeting the Chemoattractant Cytokine Receptor 2 (CCR2) or Chemokine (C-C motif) Ligand 2 (CCL2)” (THE Brigham and Women's Hospital, Inc., priority 2011, published 2014)", "origin": "cited, not measured here", "system": "patients with ALS", "data": [{"smiles": "Nc1nc2ccc(OC(F)(F)F)cc2s1", "note": "[riluzole]", "values": [{"measurement": "prolongs life", "value": "only a few months"}]}]}
